The text below walks through data of ChEMBL document CHEMBL3217415, “(Pd/C-mediated)couplingiodocyclizationcoupling strategy in discovery of novel PDE4 inhibitors: a new synthesis of pyrazolopyrimidines” (Medchemcomm, 2012).

The target of data set [1] is T1, 3',5'-cyclic-AMP phosphodiesterase 4B (Homo sapiens, UniProt Q07343). Nature of the data set: Inhibition of His-tagged recombinant human PDE4B expressed in baculovirus infected sf9 cells using cAMP as substrate at 30 uM preincubated for 15 mins followed by substrate addition measured after 1 hr by luminescence assay.
Data set [2] deals with T1, 3',5'-cyclic-AMP phosphodiesterase 4B. Description: Inhibition of His-tagged recombinant human PDE4B1 expressed in baculovirus infected sf9 cells using cAMP as substrate preincubated for 15 mins followed by substrate addition measured after 1 hr by luminescence assay.
For data set [3] the target is unchanged. Description: Inhibition of PDE4B1 (unknown origin) transfected in HEK293 cells assessed as forskolin-induced cAMP accumulation pretreated for 30 mins before forskolin challenge by luciferase reporter gene assay. The class given is cell-based. (cAMP levels reflect the balance of adenylyl cyclase and phosphodiesterase activity.)
The species entered for data set [4] is Danio rerio. Description: Toxicity in zebrafish embryo assessed as effect on locomotory activity at 20 uM after 24 hrs. The note with it: in vivo. The class given is organism-based.
Data set [5] concerns the target T2, 3',5'-cyclic-AMP phosphodiesterase 4D (Homo sapiens, UniProt Q08499). Description: Inhibition of human PDE4D2 using cAMP substrate preincubated for 15 mins followed by substrate addition measured after 1 hr by luminescence assay.
Data set [6] is filed under the species Danio rerio. Description: Toxicity in zebrafish embryo assessed as mortality at 10 to 20 uM after 1 to 24 hrs. The class given is organism-based. The following applies: in vivo.
For data set [7], the target named is 3',5'-cyclic-AMP phosphodiesterase 4A (Homo sapiens, UniProt P27815). Nature of the data set: Inhibition of PDE4A4 (unknown origin) transfected in HEK293 cells assessed as forskolin-induced cAMP accumulation pretreated for 30 mins before forskolin challenge by luciferase reporter gene assay. The class given is cell-based.
Data set [8] is filed under the species Danio rerio. Description: Toxicity in zebrafish embryo assessed as cardiac arrhythmia at 10 to 20 uM after 24 hrs by compound microscopy. The class given is organism-based, Heart. The following applies: in vivo.
For data set [9], the species on record is Danio rerio. Nature of the data set: Toxicity in zebrafish embryo assessed as increase in abnormal lesions at 10 to 20 uM after 24 hrs. The class given is organism-based. The note with it: in vivo.
Data set [10] concerns the target T2, 3',5'-cyclic-AMP phosphodiesterase 4D. Nature of the data set: Inhibition of PDE4D3 (unknown origin) transfected in HEK293 cells assessed as forskolin-induced cAMP accumulation pretreated for 30 mins before forskolin challenge by luciferase reporter gene assay. The class given is cell-based.
A further data set concerns RAW264.7. Description: Inhibition of LPS-induced TNFalpha production in mouse RAW264.7 cells pretreated for 30 mins before LPS challenge by ELISA assay. The class given is functional, cell-based. A general note: In an ELISA, binding on a coated surface is turned into a signal by an enzyme label.
The species named for data set [11] is Danio rerio. Description: Toxicity in zebrafish embryo assessed as effect on locomotory activity at 10 uM after 6 hrs. The class given is organism-based. The note with it: in vivo.
The species entered for data set [12] is Danio rerio. Description: Toxicity in zebrafish embryo assessed as effect on locomotory activity at 100 uM. The class given is organism-based. The following applies: in vivo.
Data set [13] is filed under the species Danio rerio. Description: Toxicity in zebrafish embryo assessed as mortality at 100 uM after 1 to 24 hrs. The class given is organism-based. The following applies: in vivo.
The species entered for data set [14] is Danio rerio. Nature of the data set: Toxicity in zebrafish embryo assessed as effect on locomotory activity at 10 to 20 uM after 1 to 24 hrs. The class given is organism-based. The note with it: in vivo.
Data set [15] is filed under the species Danio rerio. Nature of the data set: Toxicity in zebrafish embryo assessed as lordosis at 10 to 20 uM after 1 to 24 hrs. The class given is organism-based. The following applies: in vivo.

The term inhibition denotes the relative decrease from the control value, in per cent. The term IC50 denotes the concentration at which inhibition is half-maximal. The term EC50 denotes the concentration that produces a half-maximal response.

Activity calls are given as the source filed them. No cut-off for these calls is given here.

T1 sequence (Q07343 whole entry): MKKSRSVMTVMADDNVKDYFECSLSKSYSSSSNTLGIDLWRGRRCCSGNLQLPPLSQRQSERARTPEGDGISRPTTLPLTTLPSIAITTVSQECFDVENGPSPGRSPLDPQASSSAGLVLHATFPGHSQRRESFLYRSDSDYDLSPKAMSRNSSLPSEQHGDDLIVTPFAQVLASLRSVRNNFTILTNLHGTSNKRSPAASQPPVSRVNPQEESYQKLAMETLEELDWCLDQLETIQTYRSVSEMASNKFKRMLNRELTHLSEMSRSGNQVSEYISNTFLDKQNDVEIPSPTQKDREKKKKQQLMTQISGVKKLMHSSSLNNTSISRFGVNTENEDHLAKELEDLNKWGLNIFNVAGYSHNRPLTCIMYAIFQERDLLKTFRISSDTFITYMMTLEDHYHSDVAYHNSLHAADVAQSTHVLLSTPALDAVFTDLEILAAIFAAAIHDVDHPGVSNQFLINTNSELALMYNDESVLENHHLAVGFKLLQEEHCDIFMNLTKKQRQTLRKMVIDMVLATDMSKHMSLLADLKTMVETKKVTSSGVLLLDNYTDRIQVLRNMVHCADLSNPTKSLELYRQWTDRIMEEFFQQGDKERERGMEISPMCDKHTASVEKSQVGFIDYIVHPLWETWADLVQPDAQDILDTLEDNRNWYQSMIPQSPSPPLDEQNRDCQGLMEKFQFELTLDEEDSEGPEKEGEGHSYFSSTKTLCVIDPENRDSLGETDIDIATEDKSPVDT
T2 sequence (Q08499 whole entry): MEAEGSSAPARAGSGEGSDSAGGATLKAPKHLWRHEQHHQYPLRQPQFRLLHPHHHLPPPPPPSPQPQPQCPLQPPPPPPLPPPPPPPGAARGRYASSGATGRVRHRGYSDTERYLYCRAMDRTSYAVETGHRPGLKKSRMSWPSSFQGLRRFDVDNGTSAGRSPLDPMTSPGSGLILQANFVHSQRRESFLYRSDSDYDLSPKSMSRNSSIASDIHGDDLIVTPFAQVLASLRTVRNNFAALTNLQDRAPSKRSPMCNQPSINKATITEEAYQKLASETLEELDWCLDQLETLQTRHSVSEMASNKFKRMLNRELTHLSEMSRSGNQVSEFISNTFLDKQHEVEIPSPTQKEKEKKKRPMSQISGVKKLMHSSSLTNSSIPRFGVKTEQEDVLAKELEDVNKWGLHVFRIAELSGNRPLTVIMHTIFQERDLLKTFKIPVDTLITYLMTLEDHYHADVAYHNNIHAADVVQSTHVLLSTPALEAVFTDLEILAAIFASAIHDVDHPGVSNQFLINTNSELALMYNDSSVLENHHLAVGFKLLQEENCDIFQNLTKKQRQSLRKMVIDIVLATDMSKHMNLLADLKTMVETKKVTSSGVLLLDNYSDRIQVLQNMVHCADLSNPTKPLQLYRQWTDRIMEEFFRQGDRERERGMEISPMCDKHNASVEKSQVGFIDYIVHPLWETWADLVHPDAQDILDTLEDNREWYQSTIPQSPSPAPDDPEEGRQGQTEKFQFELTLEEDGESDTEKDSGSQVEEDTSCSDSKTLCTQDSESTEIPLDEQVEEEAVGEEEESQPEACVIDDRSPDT
Sequence of 3',5'-cyclic-AMP phosphodiesterase 4A (P27815 whole entry): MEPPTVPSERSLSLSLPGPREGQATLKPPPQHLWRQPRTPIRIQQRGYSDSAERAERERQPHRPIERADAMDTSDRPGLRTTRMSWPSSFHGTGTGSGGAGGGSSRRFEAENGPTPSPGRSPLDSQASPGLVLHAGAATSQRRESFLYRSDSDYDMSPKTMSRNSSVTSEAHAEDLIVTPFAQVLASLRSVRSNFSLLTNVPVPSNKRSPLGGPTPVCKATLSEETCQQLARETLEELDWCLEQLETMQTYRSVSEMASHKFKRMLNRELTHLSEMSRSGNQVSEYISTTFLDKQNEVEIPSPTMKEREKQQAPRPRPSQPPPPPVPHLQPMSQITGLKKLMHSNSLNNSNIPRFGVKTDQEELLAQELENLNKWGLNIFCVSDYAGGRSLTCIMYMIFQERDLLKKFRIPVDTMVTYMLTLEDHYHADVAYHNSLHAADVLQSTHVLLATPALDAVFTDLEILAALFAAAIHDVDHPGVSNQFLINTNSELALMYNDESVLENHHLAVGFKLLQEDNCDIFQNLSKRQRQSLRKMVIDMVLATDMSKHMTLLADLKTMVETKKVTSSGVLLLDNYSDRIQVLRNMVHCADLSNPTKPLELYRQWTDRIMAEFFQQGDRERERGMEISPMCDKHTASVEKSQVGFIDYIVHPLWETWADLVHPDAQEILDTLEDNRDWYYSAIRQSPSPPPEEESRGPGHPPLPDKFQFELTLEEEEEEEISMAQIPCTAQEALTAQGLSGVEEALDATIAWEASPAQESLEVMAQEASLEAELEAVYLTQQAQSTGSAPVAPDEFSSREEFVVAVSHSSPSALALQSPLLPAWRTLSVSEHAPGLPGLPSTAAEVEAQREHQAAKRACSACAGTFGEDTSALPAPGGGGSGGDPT

`CCCCCCc1oc(=O)c2c(nn3c(-c4ccccc4)ccnc23)c1/C=C/C(=O)OCC`: the inhibition entry in [1] was “inactive”.
`CCCCCCc1oc(=O)c2c(nn3c(-c4ccccc4)ccnc23)c1/C=C/C(=O)OC(C)(C)C`: in [1], the inhibition result is “inactive”.
With `NC(=O)c1cccc(-c2c(-c3ccccc3)oc(=O)c3c2nn2c(-c4ccccc4)ccnc32)c1`, the inhibition in data set [1] is 93%. The values for the IC50 (in data set [2]; in data set [5]; in the data set on RAW264.7) were 1330 nM, 2840 nM and 450 nM, respectively. Besides, the values for the EC50 in data set [3], in [7] and in data set [10] were 6320 nM, 11700 nM and 9620 nM, respectively. Besides, the Activity entry in the data set listed under Danio rerio [4] is recorded as “Non-toxic”; in the data set listed under Danio rerio [6] it was “Non-toxic”; in the data set listed under Danio rerio [8], “Non-toxic”; in the data set filed under Danio rerio [9], “Non-toxic”; in the data set listed under Danio rerio [11], “Toxic”.
On to `CCCCCC#Cc1c(CCCCCC)oc(=O)c2c1nn1c(-c3ccccc3)ccnc21`, for which the inhibition in data set [1] stood at 50%.
With `O=c1oc(-c2ccccc2)c(-c2cccc([N+](=O)[O-])c2)c2nn3c(-c4ccccc4)ccnc3c12`, the inhibition in data set [1] is 74%.
In the case of `CC(C)(C)c1ccc(C(O)CCCN2CCC(C(O)(c3ccccc3)c3ccccc3)CC2)cc1` (stereo not drawn) [TERFENADINE], the Activity entry in the data set listed under Danio rerio [12] and in the data set listed under Danio rerio [13] was “Toxic” in each case.
For `CCCCCCc1oc(=O)c2c(nn3c(-c4ccccc4)ccnc23)c1-c1cccc(C(N)=O)c1`, the inhibition in [1] turned out to be 85%.
Take `O=c1oc(-c2ccccc2)c(-c2ccc(F)cc2)c2nn3c(-c4ccccc4)ccnc3c12`: the inhibition in data set [1] is 66%.
Same read-out and setting: then `O=c1oc(-c2ccccc2)c(-c2cnc3ccccc3c2)c2nn3c(-c4ccccc4)ccnc3c12`, with 74%; and `CCCCCC#Cc1c(-c2ccccc2)oc(=O)c2c1nn1c(-c3ccccc3)ccnc21`, with 50%.
With `COc1ccc(C2CNC(=O)C2)cc1OC1CCCC1` (stereo not drawn) [ROLIPRAM], the Activity entry in the data set filed under Danio rerio [6] was “Toxic”; in the data set listed under Danio rerio [8] it was “Non-toxic”; in the data set listed under Danio rerio [9], “Toxic”; in the data set listed under Danio rerio [14], “Toxic”; in the data set listed under Danio rerio [15], “Toxic”. Also, the IC50 in the data set on RAW264.7 worked out at 190 nM.
